Where two headings read alike, the source gives them in different places.
Tests used:
Assay type in all cases: in vivo
[1] = tested on: wheat (Triticum aestivum); test: Test A postemergence, wheat; settings: Triticum aestivum, post-emergence, 240 h, 10 days, read-out: Plant response rating, Wheat; for plant injury at 31 g/ha: 31 g ai/ha, postemergence, 0 to 100 scale (0 no effect, 100 complete control); for plant injury at 125 g/ha: Postemergence, 125 g ai/ha, 0 to 100 scale
In short: (§1)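 Seeds sown in loam–sand blend received a directed soil spray preemergence; postemergence plants at 2 to 10 cm, one- to two-leaf stage, were sprayed. Compounds were formulated in non-phytotoxic solvent with surfactant. After 10 days in greenhouse, injury was rated visually versus untreated controls, 0 (no effect) to 100 (complete control).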

[2] = tested on: barnyardgrass (Echinochloa crus-galli); test: Test A preemergence, barnyardgrass; settings: 10 days
In short: as §1

[3] = tested on: redroot pigweed (Amaranthus retroflexus); test: Test A postemergence, redroot pigweed; settings: 10 days
In short: as §1

kochia (Bassia scoparia) [4] = test: Test A postemergence, kochia; settings: Bassia scoparia, post-emergence, 240 h, 10 days, read-out: Plant response rating, Kochia; for pest or weed control at 31 g/ha: 31 g ai/ha, postemergence, 0 to 100 scale (0 no effect, 100 complete control); for pest or weed control at 125 g/ha: Postemergence, 125 g ai/ha, 0 to 100 scale
In short: as §1

[5] = tested on: ducksalad (Heteranthera limosa); test: Test B flooded paddy test, ducksalad; settings: Heteranthera limosa; 250 g ai/ha, Flood; visually evaluated after 10 to 14 days; read-out: Plant response rating, Ducksalad (0 to 100 scale where 0 is no effect and 100 is complete control)
In short: (§2)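 Compound added straight to paddy water of pots flooded to 3 cm, with 2-leaf-stage plants; water level held for the test. Injury scored visually against untreated controls after 10 to 14 greenhouse days, 0 (none) to 100 (complete control).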

[6] = tested on: blackgrass (Alopecurus myosuroides); test: Test A postemergence, blackgrass; settings: Alopecurus myosuroides, post-emergence, 240 h, 10 days, read-out: Plant response rating, Blackgrass; for pest or weed control at 31 g/ha: 31 g ai/ha; for pest or weed control at 125 g/ha: 125 g ai/ha
In short: as §1

[7] = tested on: ryegrass, Italian (Italian ryegrass, Lolium multiflorum); test: Test A postemergence, ryegrass, Italian; settings: Lolium multiflorum, post-emergence, 240 h, 10 days, read-out: Plant response rating, Ryegrass, Italian; for pest or weed control at 31 g/ha: 31 g ai/ha, postemergence, 0 to 100 scale (0 no effect, 100 complete control); for pest or weed control at 125 g/ha: Postemergence, 125 g ai/ha, 0 to 100 scale
In short: as §1

[8] = tested on: ragweed (common ragweed, Ambrosia artemisiifolia); test: Test A preemergence, ragweed; settings: Ambrosia artemisiifolia, pre-emergence, 240 h, 0 to 100 scale, 10 days, read-out: Plant response rating, Ragweed; for pest or weed control at 31 g/ha: 31 g ai/ha; for pest or weed control at 125 g/ha: 125 g ai/ha
In short: as §1

[9] = tested on: barnyardgrass (Echinochloa crus-galli); test: Test B flooded paddy test, barnyardgrass; settings: Echinochloa crus-galli; 250 g ai/ha, Flood; visually evaluated after 10 to 14 days; read-out: Plant response rating, Barnyardgrass (0 to 100 scale where 0 is no effect and 100 is complete control)
In short: as §2

kochia (Bassia scoparia) [10] = test: Test A preemergence, kochia; settings: Bassia scoparia, pre-emergence, 240 h, 0 to 100 scale, 10 days, read-out: Plant response rating, Kochia; for pest or weed control at 31 g/ha: 31 g ai/ha; for pest or weed control at 125 g/ha: 125 g ai/ha
In short: as §1

[11] = tested on: barnyardgrass (Echinochloa crus-galli); test: Test A postemergence, barnyardgrass; settings: Postemergence, 0 to 100 scale, 10 days
In short: as §1

[12] = tested on: ragweed (common ragweed, Ambrosia artemisiifolia); test: Test A postemergence, ragweed; settings: Ambrosia artemisiifolia, post-emergence, 240 h, 10 days, read-out: Plant response rating, Ragweed; for pest or weed control at 31 g/ha: 31 g ai/ha, postemergence, 0 to 100 scale (0 no effect, 100 complete control); for pest or weed control at 125 g/ha: Postemergence, 125 g ai/ha, 0 to 100 scale
In short: as §1

[13] = tested on: galium (catchweed bedstraw, Galium aparine); test: Test A postemergence, galium; settings: Galium, post-emergence, 240 h, 10 days, read-out: Plant response rating, Galium; for pest or weed control at 31 g/ha: 31 g ai/ha, postemergence, 0 to 100 scale (0 no effect, 100 complete control); for pest or weed control at 125 g/ha: Postemergence, 125 g ai/ha, 0 to 100 scale
In short: as §1

[14] = tested on: redroot pigweed (Amaranthus retroflexus); test: Test A preemergence, redroot pigweed; settings: 0 to 100 scale, 10 days
In short: as §1

[15] = tested on: foxtail, giant (giant foxtail, Setaria faberi); test: Test A preemergence, foxtail, giant; settings: Setaria faberi, pre-emergence, 240 h, 0 to 100 scale, 10 days, read-out: Plant response rating, Foxtail, Giant; for pest or weed control at 31 g/ha: 31 g ai/ha; for pest or weed control at 125 g/ha: 125 g ai/ha
In short: as §1

[16] = tested on: foxtail, giant (giant foxtail, Setaria faberi); test: Test A postemergence, foxtail, giant; settings: Setaria faberi, post-emergence, 240 h, 10 days, read-out: Plant response rating, Foxtail, Giant; for pest or weed control at 31 g/ha: 31 g ai/ha; for pest or weed control at 125 g/ha: 125 g ai/ha
In short: as §1

[17] = 125 g ai/ha, 0 to 100 scale (0 no effect, 100 complete control)
[18] = 31 g ai/ha, postemergence, 0 to 100 scale (0 no effect, 100 complete control)
[19] = Postemergence, 125 g ai/ha, 0 to 100 scale
[20] = postemergence, 0 to 100 scale (0 no effect, 100 complete control)

Compound	plant injury at 31 g/ha [1] [%]	plant injury at 125 g/ha [1] [%]	pest or weed control at 31 g/ha (kochia (Bassia scoparia) [4]) [%]	pest or weed control at 125 g/ha (kochia (Bassia scoparia) [4]) [%]	pest or weed control at 250 g/ha [5] [%]	pest or weed control at 31 g/ha ([6]; Postemergence, 0 to 100 scale) [%]	pest or weed control at 125 g/ha ([6]; Postemergence, 0 to 100 scale) [%]	pest or weed control at 31 g/ha [7] [%]	pest or weed control at 125 g/ha [7] [%]	pest or weed control at 31 g/ha [8] [%]	pest or weed control at 125 g/ha [8] [%]	pest or weed control at 250 g/ha [9] [%]	pest or weed control at 31 g/ha (kochia (Bassia scoparia) [10]) [%]	pest or weed control at 125 g/ha (kochia (Bassia scoparia) [10]) [%]	pest or weed control at 31 g/ha [12] [%]	pest or weed control at 125 g/ha [12] [%]	pest or weed control at 31 g/ha [13] [%]	pest or weed control at 125 g/ha [13] [%]	pest or weed control at 31 g/ha [15] [%]	pest or weed control at 125 g/ha [15] [%]	other results
CC(=O)OCOc1c(Cl)nn(C)c(=O)c1-c1c(C)sc2cccc(Cl)c12 [Compound 1, 5-[(acetyloxy)methoxy]-6-chloro-4-(4-chloro-2-methylbenzo[b]thien-3-yl)-2-methyl-3(2H)-pyridazinone]	0	0	10	50	0	0	0	10	30	10	20	0	0	10	70	90	70	90			Plant response rating, Barnyardgrass ([2]; 31 g ai/ha, 0 to 100 scale): 0; Plant response rating, Barnyardgrass [2, 17]: 0; Plant response rating, Pigweed, Redroot [3, 18]: 80; Plant response rating, Pigweed, Redroot [3, 19]: 90; Plant response rating, Barnyardgrass ([11]; 31 g ai/ha): 0; Plant response rating, Barnyardgrass ([11]; 125 g ai/ha): 40; Plant response rating, Pigweed, Redroot ([14]; 31 g ai/ha): 80; Plant response rating, Pigweed, Redroot ([14]; 125 g ai/ha): 90
CC(=O)OCOc1c(Cl)nn(C)c(=O)c1-c1c(C)ccc2ccccc12 [Compound 5, 5-[(acetyloxy)methoxy]-6-chloro-2-methyl-4-(2-methyl-1-naphthalenyl)-3(2H)-pyridazinone]	10	30	30	60	80	20	50	30	80	100	100	40	40	70	80	90	100	100			Plant response rating, Barnyardgrass ([2]; 31 g ai/ha, 0 to 100 scale): 80; Plant response rating, Barnyardgrass [2, 17]: 100; Plant response rating, Pigweed, Redroot [3, 18]: 90; Plant response rating, Pigweed, Redroot [3, 19]: 100; Plant response rating, Barnyardgrass ([11]; 31 g ai/ha): 40; Plant response rating, Barnyardgrass ([11]; 125 g ai/ha): 80; Plant response rating, Pigweed, Redroot ([14]; 31 g ai/ha): 100; Plant response rating, Pigweed, Redroot ([14]; 125 g ai/ha): 100
COC(=O)OCOc1c(Cl)nn(C)c(=O)c1-c1c2cc(C)ccc2cc2ccc(C)cc12 [Compound 8, [[3-chloro-5-(2,7-dimethyl-9-anthracenyl)-1,6-dihydro-1-methyl-6-oxo-4-pyridazinyl]oxy]methyl methyl carbonate]	0	0	90	100	95	0	0	10	10	40	100	90	60	100	100	100	100	100	30	70	pest or weed control at 31 g/ha ([16]; Postemergence, 0 to 100 scale): 10%; pest or weed control at 125 g/ha ([16]; Postemergence, 0 to 100 scale): 70%
Cc1ccc2cc3ccc(C)cc3c(-c3c(OCOC(=O)C(C)(C)C)c(Cl)nn(C)c3=O)c2c1 [Compound 9, [[3-chloro-5-(2,7-dimethyl-9-anthracenyl)-1,6-dihydro-1-methyl-6-oxo-4-pyridazinyl]oxy]methyl 2,2-dimethylpropanoate]	0	0	70	90	100	0	0	0	10	0	60	98	50	100	80	100	70	100	0	50	pest or weed control at 31 g/ha ([16]; Postemergence, 0 to 100 scale): 20%; pest or weed control at 125 g/ha ([16]; Postemergence, 0 to 100 scale): 40%
COC(=O)OCOc1c(C)nn(C)c(=O)c1-c1c2cc(C)ccc2cc2ccc(F)cc12 [Compound 15, [[5-(2-fluoro-7-methyl-9-anthracenyl)-1,6-dihydro-1,3-dimethyl-6-oxo-4-pyridazinyl]oxy]methyl methyl carbonate]	0	0	100	100	95		10	100	100	100	100	50	90	100	100	100	100	100	100	100	pest or weed control at 31 g/ha [6, 20]: 0%; pest or weed control at 31 g/ha [16, 20]: 100%; pest or weed control at 125 g/ha ([16]; Postemergence, 0 to 100 scale): 100%
